Here are results for 18 compounds from patent publication US20160317676A1, “METHODS AND COMPOSITIONS FOR DELIVERY OF NUCLEIC ACIDS” (Tekmira Pharmaceuticals Corporation, priority 2009, published 2016).

One may read the pKa as the pH at which an ionisable group is half protonated. The ED50 is the dose at which the effect has come halfway, by size or by number of responders.

The nature of series [1]: Determination of pKa of formulated lipids with the fluorescent probe TNS. As to conditions: for pKa: TNS assay, vesicles cationic lipid/DSPC/CH/PEG-c-DOMG 40:10:40:10.
Experimental: The pKa values for the different ionizable cationic lipids were determined essentially as described (Eastman et al., 1992 Biochemistry 31:4262-4268, which is incorporated by reference in its entirety) using the fluorescent probe 2-(p-toluidino)-6-naphthalenesulfonic acid (TNS), which is non-fluorescent in water but becomes appreciably fluorescent when bound to membranes. Vesicles composed of cationic lipid/DSPC/CH/PEG-c-DOMG (40:10:40:10 mole ratio) were diluted to 0.1 mM in buffers (130 mM NaCl, 10 mM CH3COONH4, 10 mM MES, 10 mM HEPES) of various pH values ranging from 2 to 11. An aliquot of the TNS aqueous solution (1 μM final) was added to the diluted vesicles and after a 30 second equilibration period the fluorescent of the TNS-containing solution was measured at excitation and emission wavelengths of 321 nm and 445 nm, respectively. The pKa of the cationic lipid-containing vesicles was determined by plotting the measured fluorescence against the pH of the solutions and fitting the data to a Sigmodial curve using the commercial graphing program IgorPro.
The test system of the next series is Factor VII. Kind of series: In vivo mouse Factor VII silencing model (FVII siRNA in lipid formulations, serum FVII chromogenic assay). Also on record: species or system C57Bl/6 mice. As to conditions: for ED50: dose giving 50% reduction in plasma FVII vs control animals, i.v. tail vein, 24 h, FVII siRNA formulation; for % residual FVII: 40% cationic lipid/10% DSPC/40% cholesterol/10% PEG-DMG, FIG. 4; for Lipid A ED50: Lipid A by itself. Here is the method:
C57BL/6 mice (Charles River Labs, MA) received either saline or siRNA in desired formulations via tail vein injection at a volume of 0.01 mL/g. At various time points post-administration, animals were anesthesized by isofluorane inhalation and blood was collected into serum separator tubes by retro orbital bleed. Serum levels of Factor VII protein were determined in samples using a chromogenic assay (Coaset Factor VII, DiaPharma Group, OH or Biophen FVII, Aniara Corporation, OH) according to manufacturer protocols. A standard curve was generated using serum collected from saline treated animals. In experiments where liver mRNA levels were assessed, at various time points post-administration, animals were sacrificed and livers were harvested and snap frozen in liquid nitrogen. Frozen liver tissue was ground into powder. Tissue lysates were prepared and liver mRNA levels of Factor VII and apoB were determined using a branched DNA assay (QuantiGene Assay, Panomics, CA).
Factor VII (FVII), a prominent protein in the coagulation cascade, is synthesized in the liver (hepatocytes) and secreted into the plasma. FVII levels in plasma can be determined by a simple, plate-based colorimetric assay. As such, FVII represents a convenient model for determining sirna-mediated downregulation of hepatocyte-derived proteins, as well as monitoring plasma concentrations and tissue distribution of the nucleic acid lipid particles and siRNA.
C57BL/6 mice (Charles River Labs, MA) received either saline or formulated siRNA via tail vein injection. At various time points after administration, serum samples were collected by retroorbital bleed. Serum levels of Factor VII protein were determined in samples using a chromogenic assay (Biophen FVII, Aniara Corporation, OH). To determine liver mRNA levels of Factor VII, animals were sacrificed and livers were harvested and snap frozen in liquid nitrogen. Tissue lysates were prepared from the frozen tissues and liver mRNA levels of Factor VII were quantified using a branched DNA assay (QuantiGene Assay, Panomics, CA).
FVII activity was evaluated in FVII siRNA-treated animals at 48 hours after intravenous (bolus) injection in C57BL/6 mice. FVII was measured using a commercially available kit for determining protein levels in serum or tissue, following the manufacturer's instructions at a microplate scale. FVII reduction was determined against untreated control mice, and the results were expressed as % Residual FVII. Two dose levels (0.05 and 0.005 mg/kg FVII siRNA) were used in the screen of each novel liposome composition.
Test formulations were initially assessed for their FVII knockdown in female 7-9 week old, 15-25 g, female C57B1/6 mice at 0.1, 0.3, 1.0 and 5.0 mg/kg with 3 mice per treatment group. All studies included animals receiving either phosphate-buffered saline (PBS, Control group) or a benchmark formulation. Formulations were diluted to the appropriate concentration in PBS immediately prior to testing. Mice were weighed and the appropriate dosing volumes calculated (10 μl/g body weight). Test and benchmark formulations as well as PBS (for Control animals) were administered intravenously via the lateral tail vein. Animals were anesthetised 24 h later with an intraperitoneal injection of Ketamine/Xylazine and 500-700 μl of blood was collected by cardiac puncture into serum separator tubes (BD Microtainer). Blood was centrifuged at 2,000×g for 10 min at 15° C. and serum was collected and stored at −70° C. until analysis. Serum samples were thawed at 37° C. for 30 min, diluted in PBS and aliquoted into 96-well assay plates. Factor VII levels were assessed using a chromogenic assay (Biophen FVII kit, Hyphen BioMed) according to manufacturer's instructions and absorbance measured in microplate reader equipped with a 405 nm wavelength filter. […]

Setting [2] is: probe 2-(p-toluidino)-6-naphthalenesulfonic acid (TNS), 1 µM final, pKa.

The structures appear in SMILES notation. Values joined by “and” are separate entries in the source; they are usually repeats but may differ in a detail not shown here. Equal entries are not always repeated.

For the compound `CCCCC/C=C\C/C=C\CCCCCCCCC1(CCCCCCCC/C=C\C/C=C\CCCCC)OCC(CCCCN(C)C)CO1` [DLin-K6S-C4-DMA], the pKa in series [1] (setting [2]) worked out at 7.61. The same compound came in with an ED50 in the series with Factor VII of 4.00 mg/kg. As to `CCCCC/C=C\C/C=C\CCCCCCCC(=O)OCC(CN(C)C)OC(=O)CCCCCCC/C=C\C/C=C\CCCCC` (centres unmarked) [DLin-DAP-DMA], the pKa in series [1] (setting [2]) was determined as 5.67. With `CCCCC/C=C\C/C=C\CCCCCCCCC1(CCCCCCCC/C=C\C/C=C\CCCCC)OCCC(CCCN(C)C)O1` (centres unmarked) [DLin-K6A-C3-DMA], in series [1] (setting [2]), the pKa amounted to 6.95. The same compound yielded an ED50 in the series with Factor VII of 0.70 mg/kg. For the compound `CCCCC/C=C\C/C=C\CCCCCCCCC1(CCCCCCCC/C=C\C/C=C\CCCCC)OC[C@H](CCN(C)C)O1` [DLin-K-XTC2-DMA-(S)], in series [1] (setting [2]), the pKa was 6.65. The ED50 with Factor VII amounted to 0.10 mg/kg. For the compound `CCCCC/C=C\C/C=C\CCCCCCCCC1(CCCCCCCC/C=C\C/C=C\CCCCC)O[C@@H]2C3CC([C@H](N(C)C)C3)[C@@H]2O1` (some centres unmarked) [ALNY-171], the pKa in series [1] (setting [2]) was determined as 6.63. This compound also had an ED50 with Factor VII of 0.25 mg/kg. Take `CCCCC/C=C\C/C=C\CCCCCCCCC(CCCCCCCC/C=C\C/C=C\CCCCC)OC(=O)CCN(C)C` [DLin-M-C2-DMA]: the “Lipid A pKa (±0.2)” value in series [1] (Lipid A by itself, formulation 40:10:40:10 (cationic lipid:DSPC:cholesterol:PEG-DMG)) is reported as 5.64. For the same compound, the pKa in series [1] stood at 5.64. Besides, the “% residual FVII” value in the series with Factor VII (0.05 mg/kg siRNA) and in the series with Factor VII (0.10 mg/kg siRNA) was “about 90%” throughout. Besides, the “Lipid A ED50” value with Factor VII (formulation 40:10:40:10) came out at 0.600 mg/kg. Besides, in the series with Factor VII, the ED50 was 0.60 mg/kg and 0.6 mg/kg.

On to `CCCCC/C=C\C/C=C\CCCCCCCCC1(CCCCCCCC/C=C\C/C=C\CCCCC)OC[C@@H](CCN(C)C)O1` [DLin-K-XTC2-DMA-(R)], for which, in series [1] (setting [2]), the pKa stood at 6.79. For the same compound, the 50% effective dose (ED50) with Factor VII is listed as 0.10 mg/kg. Compound `CC/C=C\C/C=C\C/C=C\C/C=C\C/C=C\C/C=C\CCCC1(CCC/C=C\C/C=C\C/C=C\C/C=C\C/C=C\C/C=C\CC)OCC(CCN(C)C)O1` (centres unmarked) [DDha-K5-C2-DMA] displayed a pKa in series [1] (setting [2]) of 6.09. The compound further had a median effective dose (ED50) in the series with Factor VII of 0.20 mg/kg. Turning to `CCCCC/C=C\C/C=C\C/C=C\C/C=C\CCCCC1(CCCC/C=C\C/C=C\C/C=C\C/C=C\CCCCC)OCC(CCN(C)C)O1` (centres unmarked) [DAra-K5-C2-DMA], in series [1] (setting [2]), the pKa came out at 6.26. Further, the median effective dose (ED50) in the series with Factor VII was 0.52 mg/kg. Compound `CCCCC/C=C\C/C=C\CCCCCCCCC(CCCCCCCC/C=C\C/C=C\CCCCC)OC(=O)CCCN(CC)CC` [DLin-M-C3-DEA] displayed a pKa in series [1] of 6.17. In the series on Factor VII, the ED50 is 0.30 mg/kg and 0.3 mg/kg. As for `CCCCC/C=C\C/C=C\CCCCCCCCC(CCCCCCCC/C=C\C/C=C\CCCCC)OC(=O)C(CCN(C)C)C(=O)OC(CCCCCCCC/C=C\C/C=C\CCCCC)CCCCCCCC/C=C\C/C=C\CCCCC` [TLin-MAL-C2-DMA], in series [1] (setting [2]), the pKa turned out to be 3.93. In turn, `CCCCC/C=C\C/C=C\CCCCCCCCC1(CCCCCCCC/C=C\C/C=C\CCCCC)OCC(CCN(C)C)CO1` [DLin-K6S-C2-DMA] came in with a pKa in series [1] (setting [2]) of 7.25. This compound registered an ED50 with Factor VII of 3.00 mg/kg. Consider `CCCCC/C=C\C/C=C\CCCCCCCCC(CCCCCCCC/C=C\C/C=C\CCCCC)OC(=O)CCCN(C(C)C)C(C)C` [DLin-M-C3-DIPA], for which, in the series with Factor VII, the ED50 was 4.50 mg/kg and 4.5 mg/kg. The compound `CCCCC/C=C\C/C=C\CCCCCCCCC1(CCCCCCCC/C=C\C/C=C\CCCCC)OCC(NC(=N)N)O1` (centres unmarked) [ALNY-232] yielded a pKa in series [1] (setting [2]) of 10.

In the series with Factor VII, `CCCCC/C=C\C/C=C\CCCCCCCCC(CCCCCCCC/C=C\C/C=C\CCCCC)CN(C)C` [ALNY-181] showed an ED50 of 0.25 mg/kg. On to `CCCCC/C=C\C/C=C\CCCCCCCCC(CCCCCCCC/C=C\C/C=C\CCCCC)OC(=O)CCCN(C)C` [DLin-M-C3-DMA], for which the “Lipid A ED50” value turned out to be 0.030 mg/kg in the series on Factor VII (formulation 40:10:40:10) and 0.010 mg/kg in the series on Factor VII (formulation 50:10:38.5:1.5). Also, the “Lipid B ED50” value with Factor VII (Lipid B by itself, formulation 40:10:40:10) is recorded as 0.030 mg/kg. The same compound returned an ED50 with Factor VII of 0.03 mg/kg.

On to `CCCCC/C=C\C/C=C\CCCCCCCCC(CCCCCCCC/C=C\C/C=C\CCCCC)OC(=O)CCCCCN(C)C` [DLin-M-C5-DMA], for which the ED50 in the series with Factor VII turned out to be 0.65 mg/kg. On the same count and under the same terms, the result for `CCCCC/C=C\C/C=C\CCCCCCCCC(CCCCCCCC/C=C\C/C=C\CCCCC)OC(=O)CCCNC` [DLin-M-C3-MA] reads 5.00 mg/kg.
